We go through one compound from patent publication US20050063956A1, “Method and device for attracting insects” (Colorado State University Research Foundation, priority 1998, published 2005).

“And” between values parts separate entries of the source, which are not always exact repeats. Equal entries are not always repeated. “Also recorded” adds a separate entry of the source.

The data set has as its system western corn root worm larvae. The experiment in a line: Glass bead Y-tube choice-test bioassay (Example 18). It counts as in vivo, Diabrotica virgifera virgifera LeConte. Conditions: for CO2 selective response, choice between two concentrations: base 1, 2, 5, 10, 20 mmol/mol. The method, then: Bioassay Apparatus. The choice-test bioassay apparatus (FIG. 34) was constructed from a glass Y-tube filled with glass beads to simulate the thigmotactic cues of the soil environment that are ordinarily encountered by western corn root worm larvae. The glass Y-tube was fabricated by a local glassblower (9.5 mm inside diameter, 60° angles, with each branch 3 cm long), and clamped to a ring stand with 2 branches of the “Y” facing down. A glass connection tube (4 cm long, 0.5 cm diameter) with a piece of vinyl screen (2.5-mm mesh) held over 1 end by a 0.5-cm section of Teflon tubing (6 mm inside diameter) was inserted snugly into the end of each of the arms of the Y-tube to support the glass beads. Glass beads (3 mm, cat. no. 11-312A, Fisher Scientific, Pittsburgh, Pa.) were poured into the top of the Y-tube, filling the entire apparatus to within 0.5 cm of the top (250 beads). A 5-mm NMR tube cap (cat. no. 100-0050, Drummond Scientific, Broomall, Pa.) was fitted into the other end of each glass connection tube, with a hole to allow snug insertion of a 20-cm piece of slender Teflon tubing (0.8 mm inside diameter) for introduction of volatile chemical cues into each arm of the bioassay apparatus. Two techniques were used to introduce candidate chemical cues into the 2 arms of the apparatus: 1 used shell vials as chemical sources, and the other used syringes as chemical sources.
Shell Vial Sources. In this 1st approach (FIG. 34), two 35-ml polyethylene syringes (cat. no. 106-0490, Sherwood Medical, St. Louis, Mo.) were filled with ambient air, and the air was pumped through shell vials containing candidate chemical cues. Glass shell vials (4 ml) with polyethylene caps were used (cat. no. B7785-1, Baxter Healthcare, McGaw Park, Ill.). A 35-ml syringe was snugly connected with slender Teflon tubing (20 cm) to a hole in the cap of the shell vial. A 2nd piece of slender Teflon tubing was used to connect the shell vial to 1 arm of the bioassay apparatus. The 2 syringes used for each bioassay were connected to a syringe pump (Sage Model 355, Fisher Scientific, Pittsburgh, Pa.) that provided an airflow through each shell vial containing a candidate chemical treatment, and subsequently into a choice arm of the bioassay apparatus. For the shell vial sources of candidate chemical compounds, the shell vial containing either a carbonated water dilution or a corn seed or cut corn roots was left open for 5 min to allow the gas concentrations to reach equilibrium. The vial was capped, and the syringe pump was started, providing an airflow of 1.0 ml/min from each syringe.
Syringe Sources. In this 2nd approach (FIG. 39), 35-ml polyethylene syringes were filled directly with candidate chemical cues (such as the headspace from a container of germinating corn, a sample of CO2 mixed with air, or the headspace from a bottle of carbonated water). Each of the 2 syringes was connected with slender Teflon tubing to 1 arm of the bioassay apparatus. The 2 syringes used for each bioassay were connected to a syringe pump that was adjusted to provide an airflow of 1 ml/min from each syringe.
Bioassay Procedure. For bioassays, 20 newly hatched 1st instars (0-12 hours old) were collected from tubs containing eggs in soil (by using a camel's hair brush) and placed in a covered 5-mm NMR cap with 2 holes (1 mm diameter) drilled in the bottom (FIGS. 34 and 39). These holes were temporarily plugged with a piece of wire bent into a U-shape. The open end of the NMR cap was sealed with a small square of cellophane held in place with a plastic tube (a piece of soda straw) that fit snugly over the open end. The Y-tube apparatus was assembled and filled with glass beads and the appropriate treatment and control sources (shell vials or syringes) were connected to the arms of the Y-tube. The syringe pump was set to provide a flow of 1 ml/min and turned on. […]

For the compound `O=C=O` [CO2, carbon dioxide], the “CO2 selective response, equal amounts of CO2 on both sides” value (1, 2, 5, 10, or 20 mmol/mol both sides) was “no significant differences in attraction were observed”. Further, where the note is “300 or 900 mmol/mol CO2”, the “larval attraction at high CO2” value is given as “not attracted”. Further, under “300 or 900 mmol/mol CO2”, the “toxic symptoms of larvae at high CO2” value was “exhibited toxic symptoms; also recorded: lethargic when removed from the apparatus”. Further, the “time to recover normal movement” value (after removal from apparatus, 300 or 900 mmol/mol CO2) was 5 to 10 min. In addition, where the note is “base 1 mmol/mol”, the “smallest difference between the 2 choices still attractive” value is recorded as 0.125 mmol/mol. The “CO2 selective response, choice between two concentrations” value reads like this: (difference 0.125 mmol/mol) “significantly greater attraction was observed to 1.125 mmol/mol than to 1 mmol/mol; also recorded: no difference in attraction was observed in any of the tests at higher concentrations”; (difference 0.25 mmol/mol) “more attracted to the higher CO2 concentration for 1 versus 1.25 mmol/mol (FIG. 48), and for 2 versus 2.25 mmol/mol; also recorded: no difference in attraction was observed for 5 versus 5.25 mmol/mol (FIG. 50), for 10 versus 10.25 (FIG. 51) mmol/mol, or for 20 versus 20.25 mmol/mol”; (difference 0.50 mmol/mol) “no difference in attraction was observed for 20 versus 20.50 mmol/mol”. The “excess of CO2 concentration over control at which larvae were first attracted” value (selective response experiments) turned out to be 12.5%. Also, the “highest concentration of CO2 to which the larvae were attracted” value (versus ambient air control) was 100 mmol/mol and 85.60±1.20 mmol/mol. The “lowest concentration of CO2 attractive to the larvae” value (versus ambient air control (0.91-0.99 mmol/mol)) is given as 1.125±0.04 mmol/mol.
